Data from paper PMC10279719 (Nature Communications, 2023).

Assays:
14-3-3γ [1] = target: T1, 14-3-3γ (Homo sapiens, UniProt P61981); experiment: SPR, PEAK peptides binding to immobilised 14-3-3γ; details: peptide analyte over amine-coupled 14-3-3γ (CM5), Biacore S200, HBS-TP pH 7.4, 20 °C, steady-state 1:1 fit, mean ± S.E.M.
T1 construct: 14-3-3γ (UniProt P61981-1; residues 1–247); 8-His tag with TEV protease cleavage site (N); made in house; host or cells: E. coli C41 (DE3)
T1 sequence (P61981 1-247): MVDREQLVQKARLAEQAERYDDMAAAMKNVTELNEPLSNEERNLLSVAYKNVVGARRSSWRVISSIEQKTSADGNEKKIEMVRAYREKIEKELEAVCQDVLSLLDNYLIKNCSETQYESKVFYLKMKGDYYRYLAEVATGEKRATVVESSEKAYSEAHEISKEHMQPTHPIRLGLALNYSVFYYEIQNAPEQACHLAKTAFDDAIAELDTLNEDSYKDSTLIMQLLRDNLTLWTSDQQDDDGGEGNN
Experimental: (§1) Purified […]3 was diluted to 5 μg ml^-1 in 10 mM sodium acetate pH 4.0 and amine coupled at 25 °C to a Series S CM5 sensor chip, in HBS-N running buffer (20 mM HEPES pH 7.4, 150 mM NaCl) to a final immobilization level of 1100-1400 response units (RU), followed by surface deactivation using 1 M ethanolamine. A blank activation/deactivation was used for the reference surface. […] Samples were injected in a multi-cycle run (flow rate 30 μl min^-1, contact time of 60 s, dissociation 120 s) without regeneration. Sensorgrams were double referenced, and steady-state binding data fitted using a 1:1 binding model using Biacore S200 Evaluation Software (Cytiva, v. 1.1). […] Representative sensorgrams and fitted dissociation constant (KD) values, depicted as mean ± S.E.M.

14-3-3ε = target: T2, 14-3-3ε (Homo sapiens, UniProt P62258); experiment: SPR, PEAK tandem peptides binding to immobilised 14-3-3ε; details: peptide analyte over amine-coupled 14-3-3ε (CM5); Biacore S200, HBS-TP pH 7.4, 20 °C; steady-state 1:1 fit; mean ± S.E.M.; read-out: SPR KD, 14-3-3ε (epsilon)
T2 construct: 14-3-3ε (UniProt P62258-1; residues 1–255); 8-His tag with TEV protease cleavage site (N); made in house; host or cells: E. coli C41 (DE3)
T2 sequence (P62258 1-255): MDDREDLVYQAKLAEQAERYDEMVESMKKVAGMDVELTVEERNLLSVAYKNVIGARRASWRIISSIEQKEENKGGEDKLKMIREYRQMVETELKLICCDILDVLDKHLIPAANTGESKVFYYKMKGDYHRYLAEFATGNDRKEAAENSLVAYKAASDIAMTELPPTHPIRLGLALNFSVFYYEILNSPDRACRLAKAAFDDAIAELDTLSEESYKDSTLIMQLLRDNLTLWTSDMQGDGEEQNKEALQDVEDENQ
Experimental: Purified […]3 was diluted to 5 μg ml^-1 in 10 mM sodium acetate pH 4.0 and amine coupled at 25 °C to a Series S CM5 sensor chip, in HBS-N running buffer (20 mM HEPES pH 7.4, 150 mM NaCl) to a final immobilization level of 1100-1400 response units (RU), followed by surface deactivation using 1 M ethanolamine. A blank activation/deactivation was used for the reference surface. […] PEAK PRM peptides: […] Samples were injected in a multi-cycle run (flow rate 30 μl min^-1, contact time of 60 s, dissociation 120 s) without regeneration. Sensorgrams were double referenced, and steady-state binding data fitted using a 1:1 binding model using Biacore S200 Evaluation Software (Cytiva, v. 1.1). […] Representative sensorgrams and fitted dissociation constant (KD) values, depicted as mean ± S.E.M.

14-3-3γ [2] = target: T1, 14-3-3γ; experiment: ITC, 14-3-3γ titrated into PEAK3 tandem peptides; assay type: binding; details: binary, 14-3-3γ (syringe) into peptide (20 µM, cell), 25 °C, 20 mM HEPES pH 7.4, 150 mM NaCl, 1 mM TCEP, single-site fit, mean ± S.E.M. of N = 4 (N = 1 for non-phosphorylated peptide)
Experimental: (§2) ITC binding experiments were conducted using a MicroCal iTC200 instrument (Malvern Instruments). Titrations were conducted at 25 °C in reverse mode (peptide in cell, protein in syringe) and consisted of 19 injections of 2 μl […] at a rate of 2 s μl^−1 at 90 s time intervals, whilst stirring at 1000 rpm. An initial injection of 0.4 μl protein was made and discarded during data analysis. Proteins (14-3-3ɣ or CrkII^NSH3) were first dialyzed overnight at 4 °C into ITC buffer (20 mM HEPES pH 7.4, 150 mM NaCl, 1 mM TCEP), filtered and degassed under vacuum. […] Following the first titration, excess solution was removed from the cell, and the syringe was washed and dried. […] All data were fitted to a single binding site model to obtain the stoichiometry (N), dissociation constant (KD) and the enthalpy of binding (ΔH), using MicroCal PEAQ-ITC Analysis software (v.1.41).

CrkII^NSH3 = target: T3, CrkII^NSH3 (Homo sapiens, UniProt P46108); experiment: ITC, CrkII NSH3 titrated into PEAK3 tandem peptides (binary) or peptide:14-3-3γ complexes (ternary); assay type: binding; details: CrkII NSH3 (400 µM, syringe) into peptide pre-saturated with 14-3-3γ (16.8 µM, cell), 25 °C, HEPES pH 7.4, mean ± S.E.M. of N = 4 (pS69) or N = 1 (non-phosphorylated), read-out: ITC KD, CrkII N-SH3, ternary
T3 construct: CrkII^NSH3; UniProt P46108-1, residues 134–191; 8-His tag with TEV protease cleavage site (N); made in house; host or cells: E. coli C41 (DE3)
Experimental: as §2

14-3-3η = target: T4, 14-3-3η (Homo sapiens, UniProt Q04917); experiment: SPR, PEAK tandem peptides binding to immobilised 14-3-3η; details: peptide analyte over amine-coupled 14-3-3η (CM5); Biacore S200, HBS-TP pH 7.4, 20 °C; steady-state 1:1 fit; mean ± S.E.M.; read-out: SPR KD, 14-3-3η (eta)
T4 construct: 14-3-3η (UniProt Q04917-1; residues 1–246); 8-His tag with TEV protease cleavage site (N); made in house; host or cells: E. coli C41 (DE3)
T4 sequence (Q04917 1-246): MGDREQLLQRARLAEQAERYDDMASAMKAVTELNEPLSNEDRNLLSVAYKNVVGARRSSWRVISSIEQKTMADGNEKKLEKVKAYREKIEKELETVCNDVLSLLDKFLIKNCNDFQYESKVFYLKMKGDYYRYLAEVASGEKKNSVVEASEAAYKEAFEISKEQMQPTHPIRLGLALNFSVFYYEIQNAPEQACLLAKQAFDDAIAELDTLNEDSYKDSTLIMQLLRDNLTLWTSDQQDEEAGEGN
Experimental: as §1

T3 sequence (P46108 134-191): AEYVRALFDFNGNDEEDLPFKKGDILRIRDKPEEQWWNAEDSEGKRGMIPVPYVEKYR

CC[C@H](C)[C@H](NC(=O)[C@H](CCCCN)NC(=O)[C@H](CCCCN)NC(=O)[C@@H]1CCCN1C(=O)[C@H](CC(C)C)NC(=O)[C@@H]1CCCN1C(=O)[C@@H]1CCCN1C(=O)[C@@H]1CCCN1C(=O)[C@H](CC(C)C)NC(=O)[C@@H]1CCCN1C(C)=O)C(=O)N[C@@H](CC(C)C)C(=O)N[C@H](C(=O)N[C@@H](CCCNC(=N)N)C(=O)N[C@H](C(=O)N[C@@H](CCC(N)=O)C(=O)N[C@@H](CO)C(=O)N[C@@H](CC(C)C)C(=O)N1CCC[C@H]1C(=O)N[C@H](C(=O)N[C@@H](CCCNC(=N)N)C(=O)N[C@@H](CCCNC(=N)N)C(N)=O)[C@@H](C)O)[C@@H](C)O)[C@@H](C)O (single isomer, unassigned) [PEAK3^tandem]
SPR KD, 14-3-3γ (gamma) (14-3-3γ [1]): no appreciable binding | SPR KD, 14-3-3γ (gamma) (14-3-3γ [1]; 54–74): No binding | Kd (14-3-3γ [1]; read-out: SPR KD, 14-3-3γ (gamma)): > 100 µM | Kd (14-3-3ε): > 100 µM | ITC KD, 14-3-3γ (14-3-3γ [2]): no appreciable binding | ITC KD, 14-3-3γ (14-3-3γ [2]; 54–74): No binding | ITC KD, 14-3-3γ (14-3-3γ [2]; listed as PEAK3 tandem): no binding | Kd (CrkII^NSH3): 0.7 µM | Kd (14-3-3η): > 100 µM
